Where two headings read alike, the source gives them in different places.
Legend:
[1] = Solubility of the non-radioactive complex in conventional solvents; assay type: physicochemical; settings: every conventional solvent tested
Excerpt: As with our previous studies and to assist in our understanding of the chemical reactivity of this ligand with ^89Zr, we attempted to characterize the Zr-DOTMA complex. Unfortunately, the synthesis of Zr-DOTMA was problematic. […] This insolubility prevented any rigorous characterization using standard analytical techniques such as solution NMR, mass spectrometry, or single crystal X-ray diffraction analysis. Thus, to provide some characterization data, we completed solid-state NMR of Zr-DOTMA and compared its spectrum with that of the DOTMA ligand (Figures S1 and S2). Briefly, the C-13 spectrum of the DOTMA ligand is composed of four groups of resonances consistent with CH3, CH2, CH, and COO^−. The spectra are assigned as COO^− near 182 ppm, CH at 58 ppm, CH2 centered near 48 ppm, and four methyl resonances near 9.5 ppm. The CH3 is attached to a chiral carbon atom at a stereogenic center. In contrast to the ligand spectra, the Zr-DOTMA spectrum is comprised of a major crystalline phase, apparently with Z’ = 1 having resonances consistent with CH3, CH2, CH, and COO at 11, 47, 66, and 179 ppm, respectively. It also has minor resonances near 52, 62, and 174 ppm. The resonances near 174 are composed of at least three unique carbons but, based on linewidth, appear to be crystalline in nature. The methyl groups are magnetically inequivalent.

[2] = cited from earlier work
[3] = parameters: method as in PMID 28451334; settings: normal mice, cited from earlier work

## C[C@H](C(=O)[O-])N1CCN([C@H](C)C(=O)[O-])CCN([C@H](C)C(=O)[O-])CCN([C@H](C)C(=O)[O-])CC1.[Zr+4] [Zr-DOTMA, Zirconium (1R,4R,7R,10R)-α,α′,α″,α‴-Tetramethyl-1,4,7,10-tetraazacyclododecane-1,4,7,10-tetraacetic Acid]
[1]
  solubility (in words): insoluble in every conventional solvent tested

## O=C([O-])CN1CCN(CC(=O)[O-])Cc2cccc(n2)CN(CC(=O)[O-])CC1.[89Zr+4] [[^89Zr]Zr-PCTA]
[2]; previously reported results
  LogP: −3.09 ± 0.03

## O=C([O-])CN1CCN(CC(=O)[O-])CCN(CC(=O)[O-])CCN(CC(=O)[O-])CC1.[89Zr+4] [[^89Zr]Zr-DOTA]
[2]; value reported
  LogP: −3.80 ± 0.04

## CC(=O)N([O-])CCCCCNC(=O)CCC(=O)N([O-])CCCCCNC(=O)CCC(=O)N([O-])CCCCCN.[89Zr+4] [[^89Zr]Zr-DFO]
[2]; previously reported results
  LogP: −2.83 ± 0.03
[3]; bone
  bone (72 h p.i., %ID/g ± SD): 0.079 ± 0.006 %ID/g
[3]; kidney
  kidney (72 h p.i., %ID/g ± SD): 0.69 ± 0.09 %ID/g
[3]; liver
  liver (72 h p.i., %ID/g ± SD): 0.066 ± 0.009 %ID/g

From publication PMC12566511, “The Evaluation of (1R,4R,7R,10R)-α,α′,α″,α‴-Tetramethyl-1,4,7,10-tetraazacyclododecane-1,4,7,10-tetraacetic Acid (DOTMA) as a Chelator for Zirconium-89” (Molecules, 2025)
